Test results: patent publication US20130109682A1, “CYCLIC ETHER COMPOUNDS USEFUL AS KINASE INHIBITORS” (NOVARTIS AG, priority 2010, published 2013)
Where two headings read alike, the source gives them in different places.

What was measured:
cABLT315 kinase = cABLT315 kinase (Homo sapiens, UniProt P00519); test: cABLT315 kinase Caliper assay; format: biochemical
Protocol: PKCα and cABLT315 Kinase Caliper Assays
Assays were performed in 384 well microtiter plates. Each assay plate contained 8-point serial dilutions for test compounds, as well as two 16-point serial dilutions of staurosporine as reference compound, plus 16 high- and 16 low controls. Liquid handling and incubation steps were done on a Thermo CatX workstation equipped with a Innovadyne Nanodrop Express. Between pipetting steps, tips were cleaned in wash cycles using wash buffer. Plates with terminated kinase reactions were transferred to the Caliper LC3000 workstations for reading. Phosphorylated and unphosphorylated peptides were separated using the Caliper microfluidic mobilitishift technology and Kinase activities were calculated from the amounts of formed phospho-peptide.
Kinase reactions were prepared in 384 low volume plates by the following sequence:
1. 0.05 μA Compound (start with 1.8 mM in 90% DMSO/10% H2O)
2. +4.5 μl 2× peptide/ATP solution
3. +4.5 μl 2× enzyme solution
4. Incubate for 60 min at 30° C.
4. +16 μl stop/run buffer
Independent of the kinase, all reactions were done performed in 50 mM HEPES, pH 7.5, 1 mM DTT, 0.02% Tween20, 0.02% BSA, and 0.6% DMSO. For cABLT315 assay specific details were as follows: [cABLT315 kinase]=2.4 nM, [ATP]=10 uM, [peptide]=2 uM, [Mg]=10 mM. For PKCα, assay specific details were as follows: [kinase]=0.012 nM, [ATP]=17 uM, [peptide]=1 uM, [Mg]=7 mM, [Ca]=0.2 mM.

GSK3β = GSK3β (Homo sapiens, UniProt P49841); test: GSK3β ATP depletion assay; format: biochemical; conditions: read-out: GSK3b IC50
Outline: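 Human GSK3β (5 nM) preincubated 15 min with 10 μM biotinylated phospho-CREB peptide in pH 7.5 Tris buffer (15 mM MgCl2, 1 mM DTT, 0.1% BSA, 2.5% DMSO). Reaction started with 2 μM ATP and run to about 50% ATP depletion. Remaining ATP measured by KinaseGlo luminescence.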

[1] = tested on: KMS11 (human myeloma cell line); test: Cell proliferation assay (CellTiter-Glo), KMS11; format: cell-based; conditions: Homo sapiens, KMS-11
Outline: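 KMS11 cells in IMDM with 10% FBS and sodium pyruvate, seeded at 2000 cells/well on assay day. Compound added at 2× to equal volume of cells, incubated 3 days at 37° C. Viability read by CellTiter-Glo luminescence; EC50 derived.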

FGFR3 kinase = FGFR3 kinase (Homo sapiens, UniProt P22607); test: FGFR3 kinase inhibition assay (LanthaScreen TR-FRET); format: biochemical
Protocol: FGFR3 Kinase Inhibition Assay
LanthaScreen™ is the detection of Time-Resolved Fluorescence Resonance Energy Transfer (TR-FRET) using lanthanide chelates to measure interactions between various binding partners. The application of TR-FRET to assay kinase activity was first described by Mathis (1995). A TR-FRET assay was used to measure FGFR3 kinase inhibitory activity. The assay panel was run on a Biomek FX liquid handling workstations. To the assay plates containing […] compound or control solutions, 4.5 μL of buffer A (50 mM TRIS-HCl pH 7.4, 2 mM DTT, 0.02% Tween 20, 0.02 mM Na3VO4, H2O nanpure) including a generic concentration of ATP (2 μM f.c.) was added per well, followed by 4.5 μL of buffer B (4 uM ATP in Buffer A) including a generic concentration of polyEAY (50 nM f.c.), FGFR3 kinase, and divalent cations. Final concentration of kinase and cations were: [FGFR3 kinase]=0.20 nM, [Mg]=3 mM, [Mn]=3 mM. After 1 hour of incubation the kinase reactions were stopped by the addition of 4.5 μL of stop solution D (50 mM EDTA, 20 mM TRIS-HCl pH 7.4, 0.04% NP-40) immediately followed by 4.5 μL of buffer A (50 mM TRIS-HCl pH 7.4, 2 mM DTT, 0.02% Tween 20, 0.02 mM Na3VO4, H2O nanpure) including the Tb-labeled P-20 antibody to give a total detection volume of 18 μL. After an incubation time of 45 min in the dark, the plates were transferred into the Pherastar fluorescence reader for counting. The effect of compound on the enzymatic activity was obtained from the linear progress curves and determined from one reading (end point measurement).

[2] = KMS11 cells, cell proliferation, read-out: KMS11-Luc EC50

Sequence of FGFR3 kinase (P22607 23-806): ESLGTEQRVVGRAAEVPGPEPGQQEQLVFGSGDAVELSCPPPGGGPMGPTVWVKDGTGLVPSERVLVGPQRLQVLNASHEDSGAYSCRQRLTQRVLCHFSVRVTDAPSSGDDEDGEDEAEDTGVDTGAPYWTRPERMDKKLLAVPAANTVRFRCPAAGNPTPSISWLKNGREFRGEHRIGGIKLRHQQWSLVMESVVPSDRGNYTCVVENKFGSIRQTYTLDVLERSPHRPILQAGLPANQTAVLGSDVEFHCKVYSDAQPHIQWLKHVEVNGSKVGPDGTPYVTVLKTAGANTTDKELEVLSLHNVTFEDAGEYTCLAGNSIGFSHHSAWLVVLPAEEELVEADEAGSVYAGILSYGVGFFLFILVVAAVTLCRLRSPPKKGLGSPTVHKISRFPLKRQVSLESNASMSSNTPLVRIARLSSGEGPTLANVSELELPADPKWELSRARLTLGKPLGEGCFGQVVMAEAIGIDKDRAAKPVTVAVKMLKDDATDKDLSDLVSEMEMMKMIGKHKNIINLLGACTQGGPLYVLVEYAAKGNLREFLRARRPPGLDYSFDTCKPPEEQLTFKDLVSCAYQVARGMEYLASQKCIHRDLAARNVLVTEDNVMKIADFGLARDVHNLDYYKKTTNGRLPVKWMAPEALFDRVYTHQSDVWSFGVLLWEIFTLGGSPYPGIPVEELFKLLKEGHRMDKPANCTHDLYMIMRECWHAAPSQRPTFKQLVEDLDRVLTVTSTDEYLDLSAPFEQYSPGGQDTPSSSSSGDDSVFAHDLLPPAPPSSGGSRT
Sequence of GSK3β (P49841 whole entry, species assumed): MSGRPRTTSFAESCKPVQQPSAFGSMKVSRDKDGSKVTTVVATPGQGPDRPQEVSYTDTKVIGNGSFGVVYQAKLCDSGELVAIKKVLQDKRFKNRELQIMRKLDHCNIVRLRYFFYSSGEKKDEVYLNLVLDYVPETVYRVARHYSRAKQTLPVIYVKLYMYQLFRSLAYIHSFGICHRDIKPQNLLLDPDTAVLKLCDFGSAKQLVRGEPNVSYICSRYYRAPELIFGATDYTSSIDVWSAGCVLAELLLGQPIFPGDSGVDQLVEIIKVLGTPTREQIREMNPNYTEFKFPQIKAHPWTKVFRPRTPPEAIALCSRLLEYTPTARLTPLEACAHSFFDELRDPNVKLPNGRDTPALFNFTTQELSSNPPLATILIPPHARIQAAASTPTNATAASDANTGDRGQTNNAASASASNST

Row | SMILES | IC50 (cABLT315 kinase) [nM] | IC50 (GSK3β) [nM] | EC50 ([1]; KMS11-Luc cells) [nM] | IC50 (GSK3β; ATP depletion assay) [nM] | EC50 [1, 2] [nM] | IC50 (FGFR3 kinase) [nM]
1 | C[C@H]1O[C@@H](c2ccncc2NC(=O)c2nc(-c3ccccc3)cnc2N)C[C@@H](O)[C@]1(C)O [Example 84, 3-amino-N-(4-((2R,4R,5S,6R)-4,5-dihydroxy-5,6-dimethyltetrahydro-2H-pyran-2-yl)pyridin-3-yl)-6-phenylpyrazine-2-carboxamide] | 86 | 1 | 900 |  |  | 
2 | C[C@H]1O[C@@H](c2ccncc2NC(=O)c2nc(-c3ccccc3)ncc2N)C[C@@H](O)[C@]1(C)O [Example 32, 5-amino-N-(4-((2R,4R,5S,6R)-4,5-dihydroxy-5,6-dimethyltetrahydro-2H-pyran-2-yl)pyridin-3-yl)-2-phenylpyrimidine-4-carboxamide] | 9000 | 454 | 1120 |  |  | 
3 | CC[C@H]1O[C@@H](c2ccncc2NC(=O)c2nc(-c3ccccc3)ncc2N)C[C@@H](O)[C@@H]1O [Example 39, 5-amino-N-(4-((2R,4R,5S,6R)-6-ethyl-4,5-dihydroxytetrahydro-2H-pyran-2-yl)pyridin-3-yl)-2-phenylpyrimidine-4-carboxamide] | 8000 | 267 | > 10000 |  |  | 
4 | C=C1[C@@H](O)C[C@@H](c2ccncc2NC(=O)c2nc(-c3ccccc3)cnc2N)OC12CC2 [Example 5, 3-amino-N-(4-((5S,7S)-7-hydroxy-8-methylene-4-oxaspiro[2.5]octan-5-yl)pyridin-3-yl)-6-phenylpyrazine-2-carboxamide] | 70 | 1 | 90 |  |  | 
5 | C[C@@H]1O[C@H](c2ccncc2NC(=O)c2nc(-c3ccccc3)cnc2N)[C@@H](F)[C@H](O)[C@@]1(C)O [Example 63, 3-amino-N-(4-((2R,3S,4R,5R,6S)-3-fluoro-4,5-dihydroxy-5,6-dimethyltetrahydro-2H-pyran-2-yl)pyridin-3-yl)-6-phenylpyrazine-2-carboxamide] | 650 | 2 | 1300 |  |  | 
6 | C[C@H]1O[C@@H](c2ccncc2NC(=O)c2nc(-c3ccccc3)cnc2N)C[C@@H](N)[C@]1(C)O [Example 228, 3-amino-N-(4-((2R,4R,5S,6R)-4-amino-5-hydroxy-5,6-dimethyltetrahydro-2H-pyran-2-yl)pyridin-3-yl)-6-phenylpyrazine-2-carboxamide] |  |  |  | 13 | 2060 | 320
7 | CCC[C@H]1O[C@@H](c2ccncc2NC(=O)c2nc(-c3ccccc3)cnc2N)C[C@@H](O)[C@@H]1O [Example 340, 3-amino-N-(4-((2R,4R,5S,6R)-4,5-dihydroxy-6-propyltetrahydro-2H-pyran-2-yl)pyridin-3-yl)-6-phenylpyrazine-2-carboxamide] |  |  |  | 0.9 | 990 | 210
8 | Nc1ncc(-c2ccccc2)nc1C(=O)Nc1cnccc1[C@@H]1C[C@H](N)[C@@H](O)[C@H](C2CC2)O1 [Example 349, 3-amino-N-(4-((2S,4S,5R,6S)-4-amino-6-cyclopropyl-5-hydroxytetrahydro-2H-pyran-2-yl)pyridin-3-yl)-6-phenylpyrazine-2-carboxamide] |  |  |  | 100 | 540 | 6900
9 | Nc1ncc(-c2ccccc2)nc1C(=O)Nc1cnccc1[C@@H]1C[C@H](N)[C@]2(O)CCC[C@@H]2O1 [Example 185, 3-amino-N-(4-((2S,4S,4aR,7aS)-4-amino-4a-hydroxyoctahydrocyclopenta[b]pyran-2-yl)pyridin-3-yl)-6-phenylpyrazine-2-carboxamide] |  |  |  | 670 | 9390 | > 10000
10 | C[C@@H]1O[C@H](c2ccncc2NC(=O)c2nc(-c3ccccc3)cnc2N)C[C@H](N)[C@@]1(C)O [Example 229, 3-amino-N-(4-((2S,4S,5R,6S)-4-amino-5-hydroxy-5,6-dimethyltetrahydro-2H-pyran-2-yl)pyridin-3-yl)-6-phenylpyrazine-2-carboxamide] |  |  |  | 39 | 5870 | 3400
11 | CC[C@@H]1O[C@H](c2ccncc2NC(=O)c2nc(-c3ccccc3)cnc2N)C[C@H](N)[C@H]1O [Example 342, 3-amino-N-(4-((2S,4S,5R,6S)-4-amino-6-ethyl-5-hydroxytetrahydro-2H-pyran-2-yl)pyridin-3-yl)-6-phenylpyrazine-2-carboxamide] |  |  |  | 39 | 770 | 1600
12 | C[C@@H]1O[C@H](c2ccncc2NC(=O)c2nc(-c3ccccc3)cnc2N)C[C@H](O)[C@@]1(C)O [Example 86, 3-amino-N-(4-((2S,4S,5R,6S)-4,5-dihydroxy-5,6-dimethyltetrahydro-2H-pyran-2-yl)pyridin-3-yl)-6-phenylpyrazine-2-carboxamide] | 700 | 3 | 2800 |  |  | 
13 | CC[C@]1(O)[C@H](N)C[C@H](c2ccncc2NC(=O)c2nc(-c3ccccc3)cnc2N)O[C@@H]1C [Example 187, 3-amino-N-(4-((2R,4R,5S,6R)-4-amino-5-ethyl-5-hydroxy-6-methyltetrahydro-2H-pyran-2-yl)pyridin-3-yl)-6-phenylpyrazine-2-carboxamide] |  |  |  | 3.3 | 950 | 830
14 | C[C@H]1O[C@@H](c2ccncc2NC(=O)c2nc(-c3ccccc3)cnc2N)[C@H](F)[C@@H](O)[C@]1(C)O [Example 58, 3-amino-N-(4-((2S,3R,4S,5S,6R)-3-fluoro-4,5-dihydroxy-5,6-dimethyltetrahydro-2H-pyran-2-yl)pyridin-3-yl)-6-phenylpyrazine-2-carboxamide] | 660 | 1 | 1000 |  |  | 
15 | CC(C)(C)[C@H]1O[C@@H](c2ccncc2NC(=O)c2nc(-c3ccccc3)cnc2N)C[C@H](N)[C@@H]1O [Example 286, 3-amino-N-(4-((2R,4S,5S,6R)-4-amino-6-tert-butyl-5-hydroxytetrahydro-2H-pyran-2-yl)pyridin-3-yl)-6-phenylpyrazine-2-carboxamide] |  |  |  | 0.5 | 1970 | 710
16 | CC(C)[C@@H]1C[C@H](N)C[C@H](c2ccncc2NC(=O)c2nc(-c3ccccc3)cnc2N)O1 [Example 291, 3-amino-N-(4-((2R,4S,6S)-4-amino-6-isopropyltetrahydro-2H-pyran-2-yl)pyridin-3-yl)-6-phenylpyrazine-2-carboxamide] |  |  |  | 4.4 | 340 | 1600
17 | CC(C)[C@H]1C[C@@H](N)C[C@@H](c2ccncc2NC(=O)c2nc(-c3ccccc3)cnc2N)O1 [Example 292, 3-amino-N-(4-((2S,4R,6R)-4-amino-6-isopropyltetrahydro-2H-pyran-2-yl)pyridin-3-yl)-6-phenylpyrazine-2-carboxamide] |  |  |  | 44 | 700 | > 10000
18 | Nc1ncc(-c2ccccc2)nc1C(=O)Nc1cnccc1[C@H]1C[C@@H](O)[C@H](O)[C@@H](CCl)O1 [Example 36, 3-amino-N-(4-((2R,4R,5S,6S)-6-(chloromethyl)-4,5-dihydroxytetrahydro-2H-pyran-2-yl)pyridin-3-yl)-6-phenylpyrazine-2-carboxamide] | 30 | 1 | 200 |  |  | 
